Results as given in patent US10259818B2, “Bicyclic azaheterocyclobenzylamines as PI3K inhibitors” (Incyte Corporation, priority 2012, dated 2019).

System: SUDHL-6 cell line (diffuse large B cell lymphoma)
Experiment: SUDHL-6 cell proliferation assay (Example B3)
Format: cell-based
Conditions: SUDHL-6 cells, 3 days, Cell Titer-GLO
Method: Example B3: SUDHL-6 Cell Proliferation Assay
SUDHL-6 cell line (diffuse large B cell lymphoma) was purchased from ATCC (Manassas, Va.) and maintained in the culture medium recommended (RPMI and 10% FBS). To measure the anti-proliferation activity of the compounds through ATP quantitation, the SUDHL-6 cells was plated with the culture medium (5000 cells/well/per 200 μl) into 96-well polystyrene clear black tissue culture plate (Greiner-bio-one through VWR, NJ) in the presence or absence of a concentration range of test compounds. After 3 days, Cell Titer-GLO Luminescent (Promega, Madison, Wis.) cell culture agent was added to each well for 10 minutes at room temperature to stabilize the luminescent signal. This determines the number of viable cells in culture based on quantitation of the ATP present, which signals the presence of metabolically active cells. Luminescence was measured with the TopCount 384 (Packard Bioscience through Perkin Elmer, Boston, Mass.). […] IC50 data for the Examples is presented in Table 4 determined by the assay of Example B3.

Row | SMILES | IC50 (Homo sapiens, SU-DHL-6, 72 h) | IC50
1 | Cc1nn(C(C)c2cc(Cl)c(F)c3c2OC(C)CN(C2CN(C(=O)OC(C)(C)C)C2)C3)c2ncnc(N)c12 (single isomer, unassigned) [Example 26, tert-Butyl 3-[9-[1-(4-amino-3-methyl-1H-pyrazolo[3,4-d]pyrimidin-1-yl)ethyl]-7-chloro-6-fluoro-2-methyl-2,3-dihydro-1,4-benzoxazepin-4(5H)-yl]azetidine-1-carboxylate] | ≤ 500 nM | 
2 | Cc1nn(C(C)c2cc(Cl)c(F)c3c2OC[C@H](C)N(S(C)(=O)=O)C3)c2ncnc(N)c12 (single isomer, unassigned) [Example 35] | ≤ 500 nM | 
3 | Cc1nn(C(C)c2cc(Cl)c(F)c3c2O[C@@H](C)CN(C2CC(C(N)=O)C2)C3)c2ncnc(N)c12 (single isomer, unassigned) [Example 44] | ≤ 500 nM | 
4 | CC(=O)N1CC(N2Cc3c(C#N)c(Cl)cc(C(C)n4nc(C)c5c(N)ncnc54)c3OC(C)C2)C1 (single isomer, unassigned) [Example 48, 4-(1-Acetylazetidin-3-yl)-9-[1-(4-amino-3-methyl-1H-pyrazolo [3,4-d]pyrimidin-1-yl)ethyl]-7-chloro-2-methyl-2,3,4,5-tetrahydro-1,4-benzoxazepine-6-carbonitrile] | 500 to 1000 nM | 
5 | Cc1nn(C(C)c2cc(Cl)c(C#N)c3c2OC(C)CN(C2CN(CC(N)=O)C2)C3)c2ncnc(N)c12 (single isomer, unassigned) [Example 50, 2-{3-[9-[1-(4-Amino-3-methyl-1H-pyrazolo[3,4-d]pyrimidin-1-yl)ethyl]-7-chloro-6-cyano-2-methyl-2,3-dihydro-1,4-benzoxazepin-4(5H)-yl]azetidin-1-yl}acetamide] | ≤ 500 nM | 
6 | Cc1nn(C(C)c2cc(Cl)c(C#N)c3c2OC(C)CN(C2CN(CC(N)=O)C2)C3)c2ncnc(N)c12 (single isomer, unassigned) [Example 53, 2-{3-[9-[1-(4-Amino-3-methyl-1H-pyrazolo[3,4-d]pyrimidin-1-yl)ethyl]-7-chloro-6-cyano-2-methyl-2,3-dihydro-1,4-benzoxazepin-4(5H)-yl]azetidin-1-yl}acetamide] | ≤ 500 nM | 
7 | Cc1nn(C(C)c2cc(Cl)c(C#N)c3c2OC(C)CN(C2CN(CC(C)(C)O)C2)C3)c2ncnc(N)c12 (single isomer, unassigned) [Example 54, 9-[1-(4-Amino-3-methyl-1H-pyrazolo[3,4-d]pyrimidin-1-yl)ethyl]-7-chloro-4-[1-(2-hydroxy-2-methylpropyl)azetidin-3-yl]-2-methyl-2,3,4,5-tetrahydro-1,4-benzoxazepine-6-carbonitrile] | ≤ 500 nM | 
8 | Cc1nn(C(C)c2cc(Cl)c(C#N)c3c2OC(C)CN(C2CN(CC(C)(C)O)C2)C3)c2ncnc(N)c12 (single isomer, unassigned) [Example 55, 9-[1-(4-Amino-3-methyl-1H-pyrazolo[3,4-d]pyrimidin-1-yl)ethyl]-7-chloro-4-[1-(2-hydroxy-2-methylpropyl)azetidin-3-yl]-2-methyl-2,3,4,5-tetrahydro-1,4-benzoxazepine-6-carbonitrile] |  | ≤ 500 nM
9 | Cc1nn(C(C)c2cc(Cl)c(C#N)c3c2OC(C)CN(Cc2cccnc2)C3)c2ncnc(N)c12 (single isomer, unassigned) [Example 60, 9-[1-(4-Amino-3-methyl-1H-pyrazolo[3,4-d]pyrimidin-1-yl)ethyl]-7-chloro-2-methyl-4-(pyridin-3-ylmethyl)-2,3,4,5-tetrahydro-1,4-benzoxazepine-6-carbonitrile] | ≤ 500 nM | 
10 | Cc1nn(C(C)c2cc(Cl)c(C#N)c3c2OC(C)CN(CC(C)(C)O)C3)c2ncnc(N)c12 (single isomer, unassigned) [Example 65, 9-[1-(4-Amino-3-methyl-1H-pyrazolo[3,4-d]pyrimidin-1-yl)ethyl]-7-chloro-4-(2-hydroxy-2-methylpropyl)-2-methyl-2,3,4,5-tetrahydro-1,4-benzoxazepine-6-carbonitrile] | ≤ 500 nM | 
11 | Cc1nn(C(C)c2cc(Cl)c(C#N)c3c2OC(C)CN(CC(C)(C)O)C3)c2ncnc(N)c12 (single isomer, unassigned) [Example 66, 9-[1-(4-Amino-3-methyl-1H-pyrazolo[3,4-d]pyrimidin-1-yl)ethyl]-7-chloro-4-(2-hydroxy-2-methylpropyl)-2-methyl-2,3,4,5-tetrahydro-1,4-benzoxazepine-6-carbonitrile] |  | ≤ 500 nM
12 | CC(=O)NC1CC(N2Cc3c(C#N)c(Cl)cc(C(C)n4nc(C)c5c(N)ncnc54)c3OC(C)C2)C1 (single isomer, unassigned) [Example 67, N-{3-[9-[1-(4-Amino-3-methyl-1H-pyrazolo[3,4-d]pyrimidin-1-yl)ethyl]-7-chloro-6-cyano-2-methyl-2,3-dihydro-1,4-benzoxazepin-4(5H)-yl]cyclobutyl}acetamide] | ≤ 500 nM | 
13 | CC(=O)NC1CC(N2Cc3c(C#N)c(Cl)cc(C(C)n4nc(C)c5c(N)ncnc54)c3OC(C)C2)C1 (single isomer, unassigned) [Example 68, N-{3-[9-[1-(4-Amino-3-methyl-1H-pyrazolo[3,4-d]pyrimidin-1-yl)ethyl]-7-chloro-6-cyano-2-methyl-2,3-dihydro-1,4-benzoxazepin-4(5H)-yl]cyclobutyl}acetamide] |  | ≤ 500 nM
14 | CCC1CN(CCO)Cc2c(C#N)c(Cl)cc(C(C)n3nc(C)c4c(N)ncnc43)c2O1 (single isomer, unassigned) [Example 69, 9-[1-(4-Amino-3-methyl-1H-pyrazolo[3,4-d]pyrimidin-1-yl)ethyl]-7-chloro-2-ethyl-4-(2-hydroxyethyl)-2,3,4,5-tetrahydro-1,4-benzoxazepine-6-carbonitrile] | ≤ 500 nM | 
15 | CCC1CN(CCO)Cc2c(C#N)c(Cl)cc(C(C)n3nc(C)c4c(N)ncnc43)c2O1 (single isomer, unassigned) [Example 70, 9-[1-(4-Amino-3-methyl-1H-pyrazolo[3,4-d]pyrimidin-1-yl)ethyl]-7-chloro-2-ethyl-4-(2-hydroxyethyl)-2,3,4,5-tetrahydro-1,4-benzoxazepine-6-carbonitrile] |  | ≤ 500 nM
16 | Cc1nn(C(C)c2cc(Cl)c(F)c3c2OC(C)CN(C[C@@H](C)O)C3)c2ncnc(N)c12 (single isomer, unassigned) [Example 78] | ≤ 500 nM | 
17 | COC(=O)N1CC(N2Cc3c(F)c(Cl)cc(C(C)n4nc(C)c5c(N)ncnc54)c3OC(C)C2)C1 (single isomer, unassigned) [Example 80, methyl 3-[9-[1-(4-amino-3-methyl-1H-pyrazolo[3,4-d]pyrimidin-1-yl)ethyl]-7-chloro-6-fluoro-2-methyl-2,3-dihydro-1,4-benzoxazepin-4(5H)-yl]azetidine-1-carboxylate] | ≤ 500 nM | 
18 | Cc1nn(C(C)c2cc(Cl)c(F)c3c2OC(C)CN(C2CN(S(N)(=O)=O)C2)C3)c2ncnc(N)c12 (single isomer, unassigned) [Example 82, 3-[9-[1-(4-amino-3-methyl-1H-pyrazolo[3,4-d]pyrimidin-1-yl)ethyl]-7-chloro-6-fluoro-2-methyl-2,3-dihydro-1,4-benzoxazepin-4(5H)-yl]azetidine-1-sulfonamide] | ≤ 500 nM | 
19 | Cc1nn(C(C)c2cc(Cl)c(F)c3c2OC(C)CN(C2CN(C(N)=O)C2)C3)c2ncnc(N)c12 (single isomer, unassigned) [Example 83, 3-[9-[1-(4-amino-3-methyl-1H-pyrazolo[3,4-d]pyrimidin-1-yl)ethyl]-7-chloro-6-fluoro-2-methyl-2,3-dihydro-1,4-benzoxazepin-4(5H)-yl]azetidine-1-carboxamide] | ≤ 500 nM | 
20 | Cc1nn(C(C)c2cc(Cl)c(F)c3c2OC(C)CN(C2CN(C(N)=O)C2)C3)c2ncnc(N)c12 (single isomer, unassigned) [Example 84, 3-[9-[1-(4-amino-3-methyl-1H-pyrazolo[3,4-d]pyrimidin-1-yl)ethyl]-7-chloro-6-fluoro-2-methyl-2,3-dihydro-1,4-benzoxazepin-4(5H)-yl]azetidine-1-carboxamide] |  | ≤ 500 nM
21 | Cc1nn(C(C)c2cc(Cl)c(F)c3c2O[C@@H](C)CN(C2CN(CC(N)=O)C2)C3)c2ncnc(N)c12 (single isomer, unassigned) [Example 88] | ≤ 500 nM | 
22 | Cc1nn(C(C)c2cc(Cl)c(C#N)c3c2OC(C)CN(C2CN(S(C)(=O)=O)C2)C3)c2ncnc(N)c12 (single isomer, unassigned) [Example 93, 9-[1-(4-amino-3-methyl-1H-pyrazolo[3,4-d]pyrimidin-1-yl)ethyl]-7-chloro-2-methyl-4-[1-(methylsulfonyl)azetidin-3-yl]-2,3,4,5-tetrahydro-1,4-benzoxazepine-6-carbonitrile] | ≤ 500 nM | 
23 | Cc1nn(C(C)c2cc(Cl)c(C#N)c3c2OC(C)CN(C2CN(S(C)(=O)=O)C2)C3)c2ncnc(N)c12 (single isomer, unassigned) [Example 94, 9-[1-(4-amino-3-methyl-1H-pyrazolo[3,4-d]pyrimidin-1-yl)ethyl]-7-chloro-2-methyl-4-[1-(methylsulfonyl)azetidin-3-yl]-2,3,4,5-tetrahydro-1,4-benzoxazepine-6-carbonitrile] |  | ≤ 500 nM
24 | CCC(=O)N1CC(N2Cc3c(C#N)c(Cl)cc(C(C)n4nc(C)c5c(N)ncnc54)c3OC(C)C2)C1 (single isomer, unassigned) [Example 95, 9-[1-(4-amino-3-methyl-1H-pyrazolo[3,4-d]pyrimidin-1-yl)ethyl]-7-chloro-2-methyl-4-(1-propionylazetidin-3-yl)-2,3,4,5-tetrahydro-1,4-benzoxazepine-6-carbonitrile] | ≤ 500 nM | 
